Where two headings read alike, the source gives them in different places.
Tests used:
[1] = target: T1, PDE 2 enzyme isolated from human platelets (Homo sapiens, UniProt O00408); experiment: PDE 2 enzyme scintillation proximity assay (SPA); type: biochemical
T1 construct: PDE 2 enzyme was isolated from human platelets; from tissue; host or cells: human platelets (pooled blood from multiple donors); HiTrap Q anion-exchange fraction eluting at about 325 mM NaCl
Procedure: PDE 2 enzyme was isolated from human platelets with approximately 1.4 L of blood from multiple donors used to make the platelet pellets. Platelets were resuspended in approximately 75 mL of lysis buffer [20 mM Tris pH 7.2, 5 mM MgCl2, 250 mM Sucrose, 1 mM DTT, 1 μL/2 mL Sigma Protease inhibitor #8340; Sigma-Aldrich; St. Louis, Mo.] and lysed by sonication at 4° C., with 3 rounds of 1 min bursts then spun at 4° C. overnight at 100,000×g. Cleared lysates were loaded to AKTA Explorer FPLC (Amersham Biosciences; Piscataway, N.J.) in a series of three chromatographic separations, with an average load volume of 25 mL. A 5 mL HiTrap Q anion exchange column (Amersham Biosciences) was used. […] Two major cGMP activity fractions (PDE 5 and PDE 2) were isolated and pooled separately. The PDE 2-pooled fraction total was approximately 40 mL which was dispensed in cryovials of 200 μl/vial and placed in storage at −80° C.
The inhibitory activity of the compounds of formula (I) on recombinant or isolated PDE 2, and other PDE's, was determined using the […] scintillation proximity assay (SPA) kits from Amersham International (Little Chalfont, England). The SPA assays were performed using 96 well plates. The PDE SPA yttrium silicate beads (Amersham Biosciences) bind preferentially to the linear nucleotide, GMP, compared to the cyclic nucleotide, cGMP. ^3H-cGMP was added to the reaction and when the product, ^3H-GMP, was in […] to the beads, the scintillant within the bead was excited, which was detected using a Packard scintillation counter (Perkin-Elmer Life Sciences; Boston, Mass.). The enzyme concentration used was in the linear range and the Km of the enzyme was determined (15 uM). The final substrate concentration was <1/3 of Km (1 μM) so that IC50 values would approximate the Ki values. The assay was validated using literature compounds as controls before testing compounds. Then, PDE catalytic activity measurements obtained in the presence of the test compound, and those obtained in the absence of the test compound, were compared and the lC50 value is determined. […]

[2] = SPA, 1 μM substrate, read-out: PDE 2 Inhibition

T1 sequence (O00408 whole entry): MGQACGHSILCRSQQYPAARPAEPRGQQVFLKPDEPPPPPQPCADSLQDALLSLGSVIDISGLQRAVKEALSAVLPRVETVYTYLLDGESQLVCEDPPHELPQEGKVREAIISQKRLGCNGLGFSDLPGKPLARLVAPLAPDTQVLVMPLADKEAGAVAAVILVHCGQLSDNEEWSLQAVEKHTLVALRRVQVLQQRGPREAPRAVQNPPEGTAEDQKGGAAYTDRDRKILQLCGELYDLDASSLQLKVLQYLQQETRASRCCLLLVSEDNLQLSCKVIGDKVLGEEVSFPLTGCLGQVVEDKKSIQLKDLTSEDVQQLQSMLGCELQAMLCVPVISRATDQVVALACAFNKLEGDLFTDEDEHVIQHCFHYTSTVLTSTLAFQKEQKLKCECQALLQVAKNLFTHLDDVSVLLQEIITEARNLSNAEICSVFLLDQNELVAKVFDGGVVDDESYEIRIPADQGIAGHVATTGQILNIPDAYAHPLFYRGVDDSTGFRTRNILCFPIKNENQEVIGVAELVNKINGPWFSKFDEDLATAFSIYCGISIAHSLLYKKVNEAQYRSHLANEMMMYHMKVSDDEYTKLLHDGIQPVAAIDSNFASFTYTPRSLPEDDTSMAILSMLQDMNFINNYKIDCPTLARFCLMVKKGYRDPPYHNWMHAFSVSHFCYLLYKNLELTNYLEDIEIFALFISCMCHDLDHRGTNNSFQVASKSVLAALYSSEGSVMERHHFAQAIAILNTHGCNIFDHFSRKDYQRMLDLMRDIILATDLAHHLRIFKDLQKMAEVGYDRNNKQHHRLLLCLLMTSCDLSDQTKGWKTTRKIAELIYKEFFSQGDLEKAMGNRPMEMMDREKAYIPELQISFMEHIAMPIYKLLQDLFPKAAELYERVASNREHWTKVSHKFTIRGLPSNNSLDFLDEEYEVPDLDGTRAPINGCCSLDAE

| Compound | IC50 ([1]; PDE 2 isolated from human platelets, read-out: IC50) [nM] | IC50 [1, 2] [nM] | melting point [°C] |
| --- | --- | --- | --- |
| CCCCCCC(C(C)O)n1cnc2c(N)ncnc21 (stereo not drawn) [EHNA, erythro-9-(2-hydroxy-3-nonyl)adenine, reference compound] | 1700 |  |  |
| COc1cc(CNc2nc(NCCc3ccccn3)nc3ncccc23)cc(OC)c1 [Example 1, N^4-(3,5-Dimethoxy-benzyl)-N^2-(2-pyridin-2-yl-ethyl)-pyrido[2,3-d]pyrimidine-2,4-diamine] |  | 50 to 250 | 157 to 158 |
| COc1cc(CNc2nc(NCCc3cccnc3)nc3ncccc23)cc(OC)c1 [Example 2, N^4-(3,5-Dimethoxy-benzyl)-N^2-(2-pyridin-3-yl-ethyl)-pyrido[2,3-d]pyrimidine-2,4-diamine] |  | 50 to 250 | 185 to 186 |
| COc1cc(CNc2nc(NCc3cccnc3)nc3ncccc23)cc(OC)c1 [Example 4, N^4-(3,5-Dimethoxy-benzyl)-N^2-2-pyridin-3-ylmethyl-pyrido[2,3-d]pyrimidine-2,4-diamine] |  | 250 to 1000 | 222 to 223 |
| COc1cc(CNc2nc(NCc3cc(OC)cc(OC)c3)c3cccnc3n2)cc(OC)c1 [Example 5, N^2-N^4-Bis-(3,5-dimethoxy-benzyl)-pyrido[2,3-d]pyrimidine-2,4-diamine] |  | < 50 | 159 to 160 |
| COc1ccc(CCNc2nc(NCc3cc(OC)cc(OC)c3)c3cccnc3n2)cc1 [Example 6, N^4-(3,5-Dimethoxy-benzyl)-N^2-[2-(4-methoxy-phenyl)-ethyl]-pyrido[2,3-d]pyrimidine-2,4-diamine] |  | 250 to 1000 | 88 to 89 |
| COc1cc(CNc2nc(NCCCc3ccccc3)nc3ncccc23)cc(OC)c1 [Example 7, N^4-(3,5-Dimethoxy-benzyl)-N^2-(3-phenyl-propyl)-pyrido[2,3-d]pyrimidine-2,4-diamine] |  | 50 to 250 |  |
| COc1cc(CNc2nc(NCCc3ccc(Cl)cc3)nc3ncccc23)cc(OC)c1 [Example 8, N^2-[2-(4-Chloro-phenyl)-ethyl]-N^4-(3,5-dimethoxy-benzyl)-pyrido[2,3-d]pyrimidine-2,4-diamine] |  | 250 to 1000 | 85 to 90 |
| COc1cc(CNc2nc(NCc3ccccc3)nc3ncccc23)cc(OC)c1 [Example 9, N^2-Benzyl-N^4-(3,5-dimethoxy-benzyl)-pyrido[2,3-d]pyrimidine-2,4-diamine] |  | 250 to 1000 | 84 to 85 |
| COc1cc(CNc2nc(NCCc3cccs3)nc3ncccc23)cc(OC)c1 [Example 10, N^4-(3,5-Dimethoxy-benzyl)-N^2-(2-thiophen-2-yl-ethyl)-pyrido[2,3-d]pyrimidine-2,4-diamine] |  | < 50 | 120 to 121 |
| COc1cc(CNc2nc(NCc3ccc(C(C)(C)O)cc3)nc3ncccc23)cc(OC)c1 [Example 11, 2-(4-{[4-(3,5-Dimethoxy-benzylamino)-pyrido[2,3-d]pyrmidin-2-ylamino]-methyl}-phenyl)-propan-2-ol] |  | 250 to 1000 | 105 to 109 |
| COc1cc(CNc2nc(NCCc3ccccc3)nc3ncccc23)cc(OC)c1 [Example 12, N^4-(3,5-Dimethoxy-benzyl)-N^2-2-phenethyl-pyrido[2,3-d]pyrimidine-2,4-diamine] |  | 50 to 250 | 112 to 114 |
| COc1cc(CCNc2nc(NCc3cc(OC)cc(OC)c3)c3cccnc3n2)cc(OC)c1 [Example 13, N^4-(3,5-Dimethoxy-benzyl)-N^2-[2-(3,5-dimethoxy-phenyl)-ethyl]-pyrido[2,3-d]pyrimidine-2,4-diamine] |  | 50 to 250 | 95 to 100 |
| COc1ccc(CNc2nc(NCCc3cccc(F)c3)nc3ncccc23)cc1OC [Example 14, N^4-(3,4-Dimethoxy-benzyl)-N^2-[2-(3-fluoro-phenyl)-ethyl]-pyrido[2,3-d]pyrimidine-2,4-diamine] |  | 50 to 250 | 227 to 228 |
| COc1ccc(CNc2nc(NCCc3ccccc3F)nc3ncccc23)cc1OC [Example 15, N^4-(3,4-Dimethoxy-benzyl)-N^2-[2-(2-fluoro-phenyl)-ethyl]-pyrido[2,3-d]pyrimidine-2,4-diamine] |  | 50 to 250 | 220 to 222 |
| COc1ccc(CNc2nc(NCCc3ccc(F)cc3)nc3ncccc23)cc1OC [Example 16, N^4-(3,4-Dimethoxy-benzyl)-N^2-[2-(4-fluoro-phenyl)-ethyl]-pyrido[2,3-d]pyrimidine-2,4-diamine] |  | < 50 | 225 to 226 |
| COc1ccc(CNc2nc(NCCc3ccccc3)nc3ncccc23)cc1OC [Example 17, N^4-(3,4-Dimethoxy-benzyl)-N^2-phenethyl-pyrido[2,3-d]pyrimidine-2,4-diamine] |  | < 50 | 217 to 218 |
| COc1ccc(CNc2nc(NCCCCc3ccccc3)nc3ncccc23)cc1OC [Example 18, N^4-(3,4-Dimethoxy-benzyl)-N^2-(4-phenyl-butyl)-pyrido[2,3-d]pyrimidine-2,4-diamine] |  | 50 to 250 | 194 to 195 |
| COc1ccc(CNc2nc(NCCOc3ccccc3)nc3ncccc23)cc1OC [Example 19, N^4-(3,4-Dimethoxy-benzyl)-N^2-(2-phenoxy-ethyl)-pyrido[2,3-d]pyrimidine-2,4-diamine] |  | 50 to 250 | 227 to 228 |
| COc1ccc(CNc2nc(NCc3ccccc3C(F)(F)F)nc3ncccc23)cc1OC [Example 20, N^4-(3,4-Dimethoxy-benzyl)-N^2-(2-trifluoromethyl-benzyl)-pyrido[2,3-d]pyrimidine-2,4-diamine] |  | 250 to 1000 | 227 to 228 |
| COc1ccc(CNc2nc(NCCCc3ccc(C(C)(C)O)cc3)nc3ncccc23)cc1OC [Example 21, 2-(4-{3-[4-(3,4-Dimethoxy-benzylamino)-pyrido[2,3-d]pyrimidin-2-ylamino]-propyl}-phenyl)-propan-2-ol] |  | 250 to 1000 | 198 to 199 |
| COc1cc(CNc2nc(NCCCc3ccc(C(C)(C)O)cc3)nc3ncccc23)cc(OC)c1 [Example 22, 2-(4-{3-[4-(3,5-Dimethoxy-benzylamino)-pyrido[2,3-d]pyrimidin-2-ylamino]-propyl}-phenyl)-propan-2-ol] |  | 50 to 250 | 70 to 75 |
| COc1ccc(CNc2nc(NCc3ccc(C(O)C(F)(F)F)cc3)nc3ncccc23)cc1OC (stereo not drawn) [Example 23, 1-(4-{[4-(3,4-Dimethoxy-benzylamino)-pyrido[2,3-d]pyrimidin-2-ylamino]-methyl}-phenyl)-2,2,2-trifluoro-ethanol] |  | 250 to 1000 | 121 to 122 |
| COc1ccc(CNc2nc(NCCCc3ccc(C(C)=O)cc3)nc3ncccc23)cc1OC [Example 24, 1-(4-{3-[4-(3,4-Dimethoxy-benzylamino)-pyrido[2,3-d]pyrimidin-2-ylamino]-propyl}-phenyl)-ethanone] |  | 250 to 1000 | 184 to 185 |
| COc1ccc(CNc2nc(NCCCc3cccc(C4(C)OCCO4)c3)nc3ncccc23)cc1OC [Example 28, N^4-(3,4-Dimethoxy-benzyl)-N^2-{3-[3-(2-methyl-[1,3]-dioxolan-2-yl)-phenyl]-propyl}-pyrido[2,3-d]pyrimidine-2,4-diamine] |  | 250 to 1000 |  |
| COc1cc(CNc2nc(NCCCc3ccncc3)nc3ncccc23)cc(OC)c1 [Example 31, N^4-(3,5-Dimethoxy-benzyl)-N^2-(3-pyridin-4-yl-propyl)-pyrido[2,3d]pyrimidine-2,4-diamine] |  | 250 to 1000 |  |
